Assay results: patent US20210330611A1, “THERAPY FOR NEUROLOGICAL DISEASES/DISORDERS” (priority 2020, published 2021)
Where “and” joins values, the source holds several entries; their conditions need not be identical. Identical values can stand only once. Counter-ions that a name gives are not always drawn. Like-named read-outs stand apart in the source and are kept apart here.

Columns and labels:
primary rat microglia [1] = assay: Cell toxicity (dead cells, size <150 μm2) in coated fibrin (cFib) assay;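 note: share of dead cells sized under 150 µm2 at 10 µM in fibrin-stimulated microglia HTS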
[2] = system: fibrin- and LPS-induced microglia activation; assay: cells; type: cell-based, rat; conditions: for inhibition at 10 µM: Rattus norvegicus, Microglia
primary rat microglia [3] = assay: Cell toxicity (dead cells, size <150 μm2) in LPS assay
[4] = system: fibrin-induced microglia activation; assay: Image-based assay of fibrin-induced microglia activation (HTS and dose response); type: cell-based, rat; conditions: for inhibition at 10 µM / IC50: Rattus norvegicus, Microglia; for inhibition at 10 µM: increased cell size (>800 μm^2) as marker of activation, read-out: Fibrin % inhibition
[5] = system: LPS-induced microglia activation; assay: Image-based assay of LPS-induced microglia activation (HTS and dose response); type: cell-based, rat
[6] = primary microglia HTS, fibrin stimulation, decreased size (<150 μm^2) as marker of toxicity
[7] = quadrant by fibrin and LPS inhibition in HTS of 1907 compounds
[8] = primary microglia HTS, LPS stimulation, decreased size (<150 μm^2) as marker of toxicity
[9] = primary microglia HTS, 10 μM, fibrin assay, cell size <150 μm^2 as marker of toxicity
[10] = primary microglia HTS, 10 μM, LPS assay, cell size <150 μm^2 as marker of toxicity
[11] = primary microglia HTS, fibrin stimulation, toxicity = cell size <150 μm2
[12] = primary microglia HTS, LPS stimulation, toxicity = cell size <150 μm2
[13] = primary microglia HTS, fibrin stimulation
[14] = HTS of 1907 compounds, quadrant by fibrin and LPS inhibition
[15] = primary HTS, 10 μM, LPS assay, dead cells size <150 μm2
[16] = primary microglia HTS, fibrin stimulation, activation = cell size >800 μm2
[17] = primary microglia HTS, LPS stimulation, activation = cell size >800 μm2

Structure (SMILES) | Fibrin % cell toxicity (primary rat microglia [1]; [6]) | Quadrant (FIG. 5b) [2, 7] | LPS % cell toxicity (primary rat microglia [3]; [8]) | LPS % cell toxicity (primary rat microglia [3]; [12]) | further results
CNC[C@H](O)[C@@H](O)[C@H](O)[C@H](O)CO [Meglumine] | 0% and 1% | Q4 | 0% and 1% |  | 
COc1cccc(C2(O)CCCCC2CN(C)C)c1 (stereo not drawn) [Tramadol Hydrochloride] |  |  |  |  | Fibrin % cell toxicity (primary rat microglia [1]; [9]): 0%; LPS % cell toxicity (primary rat microglia [3]; [10]): 0%
CCCCCN(C)CCC(O)(P(=O)(O)O)P(=O)(O)O [Ibandronate] |  | Q4 |  | 0% | Fibrin % cell toxicity (primary rat microglia [1]; [11]): 0% and 1%
CCC(=O)O[C@]1(C(=O)SCF)[C@H](C)C[C@H]2[C@@H]3C[C@H](F)C4=CC(=O)C=C[C@]4(C)[C@@]3(F)[C@@H](O)C[C@@]21C [Fluticasone Propionate] | 7% and 5% | Q2 | 3% and 4% |  | inhibition at 10 µM [4, 13]: 108%
CC(C)[C@H]1CC[C@H](C(=O)N[C@H](Cc2ccccc2)C(=O)O)CC1 [Nateglinide] | 1% | Q4 | 1% and 0% |  | 
N=C(N)NC(=O)Cc1c(Cl)cccc1Cl [Guanfacine] |  | Q4 |  | 0% | Fibrin % cell toxicity (primary rat microglia [1]; [11]): 1%
OCCOCCN1CCN(C(c2ccccc2)c2ccc(Cl)cc2)CC1 (stereo not drawn) [Hydroxyzine] |  | Q4 |  | 0% | Fibrin % cell toxicity (primary rat microglia [1]; [11]): 0% and 1%
C[N+]1(C)[C@@H]2C[C@@H](OC(=O)[C@H](CO)c3ccccc3)C[C@H]1[C@@H]1O[C@@H]12 [Methscopolamine Bromide] | 1% | Q4 | 0% |  | 
C[C@@H](O)[C@H]1C(=O)N2C(C(=O)O)=C(S[C@@H]3CN[C@H](C(=O)N(C)C)C3)[C@H](C)[C@H]12 [Meropenem] | 1% | Q4 | 0% |  | 
Nc1ccn([C@@H]2CS[C@H](CO)O2)c(=O)n1 [Lamivudine] |  | Q4 |  | 0% | Fibrin % cell toxicity (primary rat microglia [1]; [11]): 1%
CCCC1O[C@@H]2C[C@H]3[C@@H]4CCC5=CC(=O)C=C[C@]5(C)[C@H]4[C@@H](O)C[C@]3(C)[C@]2(C(=O)CO)O1 (stereo partly drawn) [Budesonide] | 3% and 6% | Q2 | 5% and 1% |  | inhibition at 10 µM [4, 13]: 110%
CCN(CC)C(=O)C1(c2ccccc2)CC1CN (stereo not drawn) [Milnacipran hydrochloride, reference compound] |  | Q3 | 1% |  | Quadrant (FIG. 5b) [2, 14]: Q3; inhibition at 10 µM ([2]; Table 3, read-out: Cherry-picked Hit (Suppl. Table 7)): > 50%; inhibition at 10 µM ([2]; HTS hit classification, read-out: Hit): > 50%; Quadrant (FIG. 5b) ([2]; Table 1, screen at 10 μM): Q3; Quadrant (FIG. 5b) ([2]; Table 3, screen at 10 μM): Q3; IC50 ([4]; 48 h, Table 1, dose response 0.001-20 μM, triplicates, primary rat microglia, 48 h, read-out: Fibrin IC50): 8 µM; IC50 ([4]; Table 3, read-out: Fibrin IC50 (uM) (Suppl. Table 7)): 8 µM; IC50 ([4]; dose response, fibrin-induced microglia activation, read-out: Fibrin IC50): 8 µM; IC50 ([4]; fibrin-induced microglia activation, dose response, read-out: Fibrin IC50 (uM) (Suppl. Table 7)): 8 µM; inhibition at 10 µM [4, 13]: 72%; IC50 ([5]; Rattus norvegicus, Microglia, 48 h, Table 1, dose response 0.001-20 μM, triplicates, primary rat microglia, 48 h, read-out: LPS IC50): 20 µM; inhibition at 10 µM ([5]; Rattus norvegicus, Microglia, 48 h, primary microglia HTS, LPS stimulation, increased cell size (>800 μm^2) as marker of activation, read-out: LPS % inhibition): 31%; IC50 ([5]; Rattus norvegicus, Microglia, LPS-induced microglia activation, dose response, read-out: LPS IC50 (uM) (Suppl. Table 7)): 20 µM; IC50 ([5]; Rattus norvegicus, Microglia, Table 3, read-out: LPS IC50 (uM) (Suppl. Table 7)): 20 µM; IC50 ([5]; Rattus norvegicus, Microglia, dose response, LPS-induced microglia activation, read-out: LPS IC50): 20 µM
Oc1ccc(C2CNCCc3c2cc(O)c(O)c3Cl)cc1 (stereo not drawn) [Fenoldopam] |  | Q4 |  | 0% | Fibrin % cell toxicity (primary rat microglia [1]; [11]): 1% and 0%
NC[C@H](O)c1ccc(O)c(O)c1 [Norepinephrine] | 1% | Q4 | 0% |  | 
CN1Cc2c(N)cccc2C(c2ccccc2)C1 (stereo not drawn) [Nomifensine] | 0% | Q4 | 0% |  | 
COc1cccc(C2(O)CCCCC2CN(C)C)c1 (stereo not drawn) [Tramadol] |  |  |  |  | Fibrin % cell toxicity (primary rat microglia [1]; [9]): 1%; Quadrant (FIG. 5b) [2, 14]: Q4; LPS % cell toxicity (primary rat microglia [3]; [10]): 0%
CC(=O)[C@@]1(O)CC[C@H]2[C@@H]3C[C@H](C)C4=CC(=O)C=C[C@]4(C)[C@@]3(F)[C@@H](O)C[C@@]21C [Fluorometholone] | 6% and 3% | Q2 | 1% and 7% |  | inhibition at 10 µM [4, 13]: 104%
CN(C)CC/C=C1/c2ccccc2Sc2ccc(Cl)cc21 [Chlorprothixene] |  |  |  |  | Fibrin % cell toxicity (primary rat microglia [1]; primary HTS, 10 μM, fibrin assay, dead cells size <150 μm2): 1%; Quadrant (FIG. 5b) ([2]; primary HTS, 10 μM): Q4; LPS % cell toxicity (primary rat microglia [3]; [15]): 1% and 0%
CC[C@@H](CO)NC(=O)[C@@H]1C=C2c3cccc4c3c(cn4C)C[C@H]2N(C)C1 [Methysergide Maleate] | 0% and 1% | Q4 | 0% |  | 
C[C@]1(Cn2ccnn2)[C@H](C(=O)O)N2C(=O)C[C@H]2S1(=O)=O [Tazobactam] |  |  |  |  | Fibrin % cell toxicity (primary rat microglia [1]; [9]): 1% and 0%; Quadrant (FIG. 5b) [2, 14]: Q4; LPS % cell toxicity (primary rat microglia [3]; [10]): 0%
CC(Oc1c(Cl)cccc1Cl)C1=NCCN1 (stereo not drawn) [Lofexidine] |  | Q4 |  | 0% | Fibrin % cell toxicity (primary rat microglia [1]; [11]): 0% and 1%
C[C@H](N)[C@H](O)c1cccc(O)c1 [Metaraminol] | 0% and 1% | Q4 | 1% |  | 
C[C@@H]1[C@H](O)[C@@H](C)/C=C/C=C/CC/C=C/C=C/C=C/C=C/C(O[C@H]2O[C@H](C)[C@@H](O)[C@H](N)[C@@H]2O)CC2O[C@](O)(CC(O)C(O)CCC(O)CC(O)CC(O)CC(=O)O[C@H]1C)CC(O)C2C(=O)O (stereo partly drawn) [Nystatin] | 0% and 1% | Q4 | 1% |  | 
CC(=O)[C@@]1(O)CC[C@H]2[C@@H]3CCC4=CC(=O)CC[C@]4(C)[C@H]3CC[C@@]21C [Hydroxyprogesterone] |  | Q4 |  | 1% | Fibrin % inhibition [4, 16]: 9%; LPS % inhibition [5, 17]: 33%
CN(C)[C@@H]1C(=O)C(C(N)=O)=C(O)[C@@]2(O)C(=O)C3=C(O)c4c(O)ccc(Cl)c4[C@@](C)(O)[C@H]3C[C@@H]12 |  |  |  |  | Quadrant (FIG. 5b) ([2]; primary HTS, 10 μM): Q4; Fibrin % inhibition ([4]; primary HTS, 10 μM, fibrin-stimulated primary microglia): 27%; LPS % cell toxicity (primary rat microglia [3]; [15]): 0%; LPS % inhibition ([5]; primary HTS, 10 μM, LPS-stimulated primary microglia): 23%
CC(C)(C)NC(=O)[C@H]1CC[C@H]2[C@@H]3CC[C@H]4NC(=O)C=C[C@]4(C)[C@H]3CC[C@]12C [Finasteride] |  | Q4 |  | 1% and 0% | Fibrin % cell toxicity (primary rat microglia [1]; [11]): 1% and 0%
CC(C)N1CCN(c2ccc(OCC3COC(Cn4cncn4)(c4ccc(Cl)cc4Cl)O3)cc2)CC1 (stereo not drawn) [Terconazole] |  |  |  |  | Fibrin % cell toxicity (primary rat microglia [1]; [9]): 1%; Quadrant (FIG. 5b) [2, 14]: Q4; LPS % cell toxicity (primary rat microglia [3]; [10]): 0%
O=[N+]([O-])O[C@H]1CO[C@H]2[C@@H]1OC[C@H]2O[N+](=O)[O-] [Isosorbide Dinitrate] |  |  |  | 0% | Fibrin % cell toxicity (primary rat microglia [1]; [11]): 0%
Br.COc1ccc2c3c1O[C@H]1C[C@@H](O)C=C[C@@]31CCN(C)C2 [Galanthamine Hydrobromide, Galantamine] |  | Q4 |  | 0% | Fibrin % inhibition [4, 16]: 10%; LPS % inhibition [5, 17]: 9%
